# Test: in vitro
# Conditions: human, hela cells, % viability
row,Structure (SMILES),"viability at 28.5 h, 10 µM"
1,COc1cccc(CN2CCCC(NC(=O)c3cnn(C(C)C)c3)C2)c1 (centres unmarked) [CBK307477],91.3%
2,CCOC(=O)c1cc(-c2ccc(OC)cc2)nn1-c1ccc(C(=O)O)cc1 [CBK296133],87.9%
3,Cc1cccc(OCCCn2cncc2-c2cn(C)nc2C)c1 [CBK281766],90%
4,Cn1cnnc1C1CCN(C(=O)CC2OCCc3sccc32)CC1 (centres unmarked) [CBK304912],90.2%
5,CCCN1C(=O)N(CO)C2C1N(CO)C(=O)N2CCC (centres unmarked) [CBK263882],101%
6,c1ccc(C(Oc2nccnc2-c2ccncc2)c2ccccc2)cc1 [CBK106728],89.1%
7,COc1ccc(C(=O)O)cc1CN1CCOCC1 [CBK287029],102%
8,Cn1c(C(=O)N2CCc3ccccc32)cc2ccccc21 [CBK200406],110%
9,CCC(C)NC(=O)CN1CCN(Cn2nnc3ccccc3c2=O)CC1 (centres unmarked) [CBK305032],100%
10,O=C(O)c1[nH]c2ccccc2c1NS(=O)(=O)c1ccc(Br)cc1 [CBK049878],61.1%
11,O=C(O)C1CCN(C2CC(=O)N(Cc3ccccc3)C2=O)CC1 (centres unmarked) [CBK287206],84.8%
12,CCOC(=O)c1cccc(S(=O)(=O)NC(C)Cn2cncn2)c1 (centres unmarked) [CBK305820],95.9%
13,Cc1nc(NS(=O)(=O)c2ccc(Oc3ccccc3)cc2)sc1C(=O)O [CBK045566],107%
14,CCN1CCN(C(=O)Cc2ccc(OC)cc2)C(Cc2ccc(-c3ccncc3)cc2)C1=O (centres unmarked) [CBK285804],106%
15,O=c1oc(-c2ccncc2)nn1Cc1ccccc1F [CBK283692],89.1%
16,C=C(C)CN1CCN(C(=O)c2ccnc3ccc(Cl)cc23)CC1 [CBK282617],111%
17,CS(=O)(=O)Nc1ccc(C(=O)Nc2ccc(S(=O)(=O)Nc3nccs3)cc2)cc1 [CBK267856],97.3%
18,CCOC(=O)c1c(NS(=O)(=O)c2cc(Cl)sc2Cl)sc2c1CCCC2 [CBK050397],96.1%
19,CC(C)CCCC(=O)n1ccn(-c2ccc(N(C)C)cc2)c1=O [CBK106603],92.7%
20,O=C(NCc1c(F)cccc1F)c1ccc(-c2ccc(OC(F)(F)F)cc2)nc1 [CBK161007T],97.6%
21,O=C1NC2(CCc3ccccc31)CCN(Cc1cccnc1)C2 (centres unmarked) [CBK284620],96.5%
22,O=C(Nc1cccc(Cl)c1)Nc1ccccc1NC(=O)Nc1cccc(Cl)c1 [CBK267624],92.4%

row,Structure (SMILES),"viability at 28.5 h, 10 µM"
1,Cc1nc2cc(OCc3ccc(-c4nccnc4-c4nnn[nH]4)cc3)ccc2s1 [CBK050820],108%
2,CCn1cc(CN2CCN(C(=O)c3csc(C(C)C)c3)CC2)cn1 [CBK282044],88.1%
3,CS(=O)(=O)c1ccc(-c2nccnc2NCc2cccnc2)cc1 [CBK036977],104%
4,CC(Sc1ccc(Cl)cc1)C(=O)Nc1ccc(S(=O)(=O)Nc2ccc(Cl)cc2)cc1 (centres unmarked) [CBK264805],97.9%
5,Cc1onc(-c2ccccc2)c1CNC(=O)c1ccco1 [CBK144074],90.5%
6,COC(=O)C(=O)N1CC[C@H]2NC(=O)N(Cc3ccccc3)C(=O)[C@H]21 [CBK289292],98.6%
7,Cc1cc(NC(=O)C2CCN(C(=O)c3cnc(N)c(Cl)c3)CC2)no1 [CBK305545],110%
8,CNC(=O)c1cc(-c2cccc(Cl)c2)oc1CC(=O)c1ccc(CN2CCCC2)cc1 [CBK047558],95.3%
9,NC(=O)C1CCN(C2=NC(=O)/C(=C/c3cn(-c4ccccc4)nc3-c3ccc(F)cc3)S2)CC1 [CBK265175],106%
10,COCC(=O)NCc1cc2n(n1)CCN(Cc1cccs1)C2 [CBK307085],106%
11,Cc1ccccc1Nc1nc(N)nc(CN2CCOCC2)n1 [CBK305646],87.5%
12,OCCNc1ncnc2ccc(Br)cc12 [CBK073217],93.9%
13,O=C(NCc1ccccc1)C1CCN(C(=O)Cc2c(F)cccc2Cl)CC1 [CBK297919],96.6%
14,O=C(CN1CCOCC1)N1CCc2ccccc21 [CBK200271],96.3%
15,COc1nc2nc(N)nc(N)c2nc1C [CBK025669],90.1%
16,O=C(Nc1cccc(-c2csnn2)c1)c1ccco1 [CBK270255],85.2%
17,COc1ccc(-c2cncc(NCC3CCOCC3)n2)cc1 [CBK037285],96.5%
18,O=S(=O)(Nc1nccnc1Cl)c1ccccc1Cl [CBK149698],84.3%
19,CC1CC(Nc2ccccc2)c2ccccc2N1 (centres unmarked) [CBK057947],86.6%
20,O=C1C2(c3ccccc3)CN(CCCO)CC1(c1ccccc1)CN(CCCO)C2 [CBK265912],109%
21,Cc1cnc(CNC(=O)/C=C/c2ccc(C(C)C)cc2)cn1 [CBK149625],99.4%
22,O=C1CC(c2nc(-c3ccncc3)no2)CN1c1ccc2c(c1)OCO2 (centres unmarked) [CBK288583],110%

row,Structure (SMILES),"viability at 28.5 h, 10 µM"
1,Cc1ccc2c(c1)oc(=O)n2CCNC(=O)Cc1c[nH]c2ccccc12 [CBK284473],101%
2,CCOC(=O)CN1C(=O)S/C(=C/c2cc(Cl)c(OCC(=O)O)c(Br)c2)C1=O [CBK264614],106%
3,Cn1nc(C2CC2)cc1C(=O)NCCCN1CCCc2ccccc21 [CBK282476],90.7%
4,FC(F)(F)c1ccc(OCCOc2ccccc2)nc1 [CBK115829],80.4%
5,O=C(O)c1ccc(N2C(=O)CC(N3CCN(CCO)CC3)C2=O)cc1 (centres unmarked) [CBK271638],88.9%
6,COc1cc(OC)c(OC)cc1CN1CCN(Cc2ccco2)CC1 [CBK074509G],92.9%
7,COc1ccc(N2C(=O)CC(Nc3cc(C(=O)O)ccc3C)C2=O)c(OC)c1 (centres unmarked) [CBK296650],114%
8,CC(C)c1ccc(S(=O)(=O)Nc2cccc(SC(F)(F)F)c2)cc1 [CBK044581],99.5%
9,O=C(O)c1ccc(-n2nnnc2SCc2ccc(F)cc2)cc1 [CBK287229],95.8%
10,O=C(Nc1cccc2ccccc12)N1CCC(n2c(=O)[nH]c3ccccc32)CC1 [CBK149858],85%
11,CCCCN(C)c1c(CC)nc2ccc(C(=O)Nc3ccc(OC)c(OC)c3)cn12 [CBK145445],95.5%
12,Cc1ncccc1-c1csc(C2CCCO2)n1 (centres unmarked) [CBK304121],117%
13,Cc1c(C(=O)N(C)Cc2cccn2C)[nH]c2ccccc12 [CBK283270],94.6%
14,Cc1cc2nc(C3CCCN3C(=O)CN3CCCCC3)[nH]c2cc1C (centres unmarked) [CBK282944],91.3%
15,CCC(C)NC(=O)C1(Cc2cccc(-c3ccc(OC)cc3)c2)CCOCC1 (centres unmarked) [CBK286513],94.9%
16,O=C(NC1CC1)[C@H]1O[C@H](CCN2CCN(c3ccccc3)CC2)CC[C@@H]1O [CBK288717],96.8%
17,C=CCn1c(SCC(=O)Nc2cccc(C(F)(F)F)c2)nnc1C12CC3CC(CC(C3)C1)C2 [CBK266054],105%
18,CCCCN(C)C(=O)Cn1nc(C)c2ccccc2c1=O [CBK305050],81.4%
19,Cn1c(O)c(CCNc2cc([C@H]3C[C@@H](N)C3)nc(C3CC3)n2)cnc1=O [CBK306819],85%
20,COc1cccc(CN2CCC(Cc3ccccc3-c3ccc(C)cc3C)(C(=O)O)CC2)c1 [CBK286420],95.5%
21,CSc1nc(O)cc(C(F)(F)F)n1 [CBK001401],112%
22,CN(Cc1c(F)cccc1Cl)C(=O)CSc1nc(CC(=O)O)cs1 [CBK296708],95.3%

row,Structure (SMILES),"viability at 28.5 h, 10 µM"
1,O=C(c1cccc(NS(=O)(=O)c2cc(F)c(Br)cc2F)c1)N1CCOCC1 [CBK039007],86.7%
2,CCC(=O)Nc1ccc(C(=O)Nc2ccc(S(=O)(=O)N3CCCCC3)cc2)cc1 [CBK269549],84%
3,COc1ccc(N2C(=S)N(CC3CCCCC3)[C@H]3[C@H]4OC(=O)[C@H](C[C@H]4O)[C@H]32)cc1 [CBK288939],108%
4,Cc1cc(C)n(CCN2CCC(N(C)Cc3nnc(C)n3C)C2)n1 (centres unmarked) [CBK304449],94.3%
5,CCCn1nc(C)c(CN(C)Cc2n[nH]c3c2CCCC3)c1C [CBK282600],95.4%
6,CCOC(=O)N1CCC(NC(=O)N(CCN(C)C)Cc2ccccc2)CC1 [CBK155121],109%
7,O=C(c1cn2cc(-c3cccs3)n(CC3CC3)c(=O)c2n1)N1CCCC1 [CBK306756],92.8%
8,O=C(c1cnccc1C(F)(F)F)N1Cc2ccccc2C1 [CBK200323],105%
9,COc1ccc(NC2=C(NCCO)C(=O)c3ccccc3C2=O)cc1 [CBK264756],102%
10,Cc1cc(C(=O)Nc2ccccc2N2CCOCC2)c(C)o1 [CBK057243],111%
11,O=C(Nc1ccc(Cl)cc1)c1ccc(N2CCN(Cc3ccccc3)CC2)c([N+](=O)[O-])c1 [CBK264422],103%
12,Cc1cc(C)n(CCNCc2cc(-c3ccc(F)cc3)c[nH]c2=O)n1 [CBK284694],89.2%
13,Cc1ccc(S(=O)(=O)NC(C)C(=O)NCc2ccco2)cc1 (centres unmarked) [CBK266514],109%
14,CCCN(CCc1ccc(C(F)(F)F)cc1)C1Cc2cc(OC)c(OC)cc2C1 [CBK017829C],103%
15,c1ccc(Cc2nn3c(COc4ccccc4)nnc3s2)cc1 [CBK267163],88%
16,COc1cc(/C=N/c2ccc3oc(-c4cccc(I)c4)nc3c2)ccc1OC(=O)c1ccc(Cl)cc1Cl [CBK261239],95.3%
17,CC1CCN(S(=O)(=O)c2cccc(C(=O)N3CCC(C(=O)O)CC3)c2)CC1 [CBK266790],87.4%
18,Clc1cccc(-c2cccc(Nc3cccnc3)n2)c1Cl [CBK037800],102%
19,Cc1nnc(SCC(=O)N2CCN(Cc3ccccc3)CC2)s1 [CBK267196],96%
20,Cc1c(C(=O)N2CCCC(c3cnccn3)C2)oc2c(F)cccc12 (centres unmarked) [CBK285302],96.3%
21,O=C(c1cc2nc(-c3ccccc3)cc(-c3ccccc3)n2n1)N1CCN(C(=O)c2ccco2)CC1 [CBK269056],99.4%

# Same assay, conditions: human, hela cells, % viability, bulk resorufin, single well
row,Structure (SMILES),"viability at 28.5 h, 10 µM"
1,COc1ccc(O)c(CN2CCN(Cc3ccc(Cl)cc3)CC2)c1 [CBK263660],110%
2,CCOc1cccc(N2C(=O)NC(=O)/C(=C/NCCc3c[nH]c4ccccc34)C2=O)c1 [CBK265541],106%
